Patent US12495798B2, “Nicotinamide compound and herbicidal composition comprising compound” (KOREA RESEARCH INSTITUTE OF CHEMICAL TECHNOLOGY, priority 2019, dated 2025)

Key:
Type in all cases: in vivo
bindweed [1] = test: Herbicidal activity test against upland field weeds (soil treatment test); parameters: key to Soil treatment herbicidal activity, Bindweed: 0 (no control); 100 (complete control); conditions: scale 0 (no control) to 100 (complete control); for pest or weed control at 75 g/ha: 75 g ai/ha
How it was run: (§1)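 Pre-emergence test: seeds or rootstocks were sown in fertilized sandy loam, and the next day the soil surface was sprayed with compound at 50 or 75 g a.i./ha in 50% acetone/0.1% Tween-20. Plants were grown in a greenhouse (30±5 °C, 14/10 h light/dark), then visually scored 0–100 against untreated at 14 d (21 d if needed).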

velvetleaf [2] = test: as above; parameters: key to Soil treatment herbicidal activity, velvet leaf: 0 (no control); 100 (complete control); conditions: scale 0 (no control) to 100 (complete control)
How it was run: as §1

crabgrass [3] = test: Herbicidal activity test against upland field weeds (foliar treatment test); conditions: Digitaria sanguinalis, scale 0-100; for pest or weed control at 75 g/ha: 75 g ai/ha
How it was run: (§2)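 Weeds were raised from seed or rootstocks in horticultural soil in a greenhouse (30±5° C., 14/10 h light/dark), then foliage was hand-sprayed with compound at 50 or 75 g a.i./ha in 50% acetone with 0.1% Tween-20. Control was scored visually 0–100 against untreated plants after 14 days, or 21 if needed.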

cocklebur [4] = test: Herbicidal activity test against upland field weeds (soil treatment test); parameters: key to Soil treatment herbicidal activity, Cocklebur: 0 (no control); 100 (complete control); conditions: scale 0 (no control) to 100 (complete control)
Procedure: Experimental Example 2: Herbicidal Activity Test Against Upland Field Weeds (Soil Treatment Test) Soil treatment was performed as follows: After filling a square plastic pot having a surface area of 350 cm^2 with sandy loam mixed with 1 g per pot (350 cm^2) of horticultural mixed fertilizer (N:P:K=11:10:11), seeds (10˜15 grains) or rootstocks (2 pieces) of 5 kinds of grassy weeds of sorghum, barnyard grass, quack grass, crabgrass, fall panicum, and 5 kinds of broadleaf weeds of black nightshade, indian jointvetch, velvetleaf, cocklebur, bindweed, which had been stored in a low temperature (6° C.), were sown. The day after sowing, test compound solutions were made by diluting with a preparation solution (including 50% acetone, 0.1% Tween-20) so that the final treatment amount of the test compounds was 50 or 75 g a.i./ha. The prepared test compound solution was used for treating soil surface by hand-spraying 14 mL per pot in a fume hood. After the treatment, it was managed under the same greenhouse conditions (average temperature 30±5° C., light/dark=14/10 hours), and after 14 days (after 21 days if necessary), the external symptoms and efficacy were investigated according to the scale of 0 (no control) to 100 (complete control). The results of Table 8 were obtained by evaluating weed control value to the untreated control by conducting visual assessment.

barnyard grass [5] = test: as above; parameters: key to Soil treatment herbicidal activity, barnyard grass: 0 (no control); 100 (complete control); conditions: scale 0 (no control) to 100 (complete control); for Soil treatment herbicidal activity, barnyard grass: 75 g ai/ha
How it was run: as §1

quack grass [6] = test: as above; parameters: key to Soil treatment herbicidal activity, quack grass: 0 (no control); 100 (complete control); conditions: scale 0 (no control) to 100 (complete control)
How it was run: as §1

black nightshade [7] = test: Herbicidal activity test against upland field weeds (foliar treatment test); parameters: key to Foliar treatment herbicidal activity, black nightshade: 0 (no control); 100 (complete control); conditions: scale 0-100; for Foliar treatment herbicidal activity, black nightshade: 75 g ai/ha
How it was run: as §2

black nightshade [8] = test: Herbicidal activity test against upland field weeds (soil treatment test); parameters: key to Soil treatment herbicidal activity, black nightshade: 0 (no control); 100 (complete control); conditions: scale 0 (no control) to 100 (complete control)
How it was run: as §1

cocklebur [9] = test: Herbicidal activity test against upland field weeds (foliar treatment test); conditions: Xanthium strumarium, scale 0-100; for pest or weed control at 75 g/ha: 75 g ai/ha
How it was run: as §2

fall panicum [10] = test: as above; parameters: key to Foliar treatment herbicidal activity, Fall panicum: 0 (no control); 100 (complete control); conditions: scale 0-100; for pest or weed control at 75 g/ha: Panicum dichotomiflorum, 75 g ai/ha
How it was run: as §2

barnyard grass [11] = test: as above; conditions: Echinochloa crus-galli, scale 0-100; for pest or weed control at 75 g/ha: 75 g ai/ha
How it was run: as §2

sorghum [12] = test: Herbicidal activity test against upland field weeds (soil treatment test); parameters: key to Soil treatment herbicidal activity, Sorghum: 0 (no control); 100 (complete control); conditions: scale 0 (no control) to 100 (complete control); for plant injury at 75 g/ha: Sorghum, 75 g ai/ha
How it was run: as §1

velvetleaf [13] = test: Herbicidal activity test against upland field weeds (foliar treatment test); parameters: key to Foliar treatment herbicidal activity, velvet leaf: 0 (no control); 100 (complete control)
How it was run: as §2

fall panicum [14] = test: Herbicidal activity test against upland field weeds (soil treatment test); parameters: key to Soil treatment herbicidal activity, Fall panicum: 0 (no control); 100 (complete control); conditions: scale 0 (no control) to 100 (complete control); for Soil treatment herbicidal activity, Fall panicum: 75 g ai/ha
How it was run: as §1

quack grass [15] = test: Herbicidal activity test against upland field weeds (foliar treatment test); parameters: key to Foliar treatment herbicidal activity, quack grass: 0 (no control); 100 (complete control); conditions: scale 0-100
How it was run: as §2

sorghum [16] = test: as above; parameters: key to Foliar treatment herbicidal activity, Sorghum: 0 (no control); 100 (complete control); conditions: scale 0-100; for plant injury at 75 g/ha: Sorghum, 75 g ai/ha
How it was run: as §2

indian jointvetch [17] = test: as above; conditions: scale 0-100; for pest or weed control at 75 g/ha: 75 g ai/ha
How it was run: as §2

bindweed [18] = test: as above; conditions: scale 0-100; for pest or weed control at 75 g/ha: 75 g ai/ha
How it was run: as §2

indian jointvetch [19] = test: Herbicidal activity test against upland field weeds (soil treatment test); parameters: key to Soil treatment herbicidal activity, Indian jointvetch: 0 (no control); 100 (complete control); conditions: scale 0 (no control) to 100 (complete control); for Soil treatment herbicidal activity, Indian jointvetch: 75 g ai/ha
How it was run: as §1

crabgrass [20] = test: as above; conditions: Digitaria sanguinalis, 50 g ai/ha, scale 0 (no control) to 100 (complete control)
How it was run: as §1

Compound | pest or weed control at 75 g/ha (bindweed [1]) [%] | Soil treatment herbicidal activity, velvet leaf (velvetleaf [2]; 75 g ai/ha) | pest or weed control at 75 g/ha (crabgrass [3]) [%] | Soil treatment herbicidal activity, barnyard grass (barnyard grass [5]) | Soil treatment herbicidal activity, quack grass (quack grass [6]; 75 g ai/ha) | Foliar treatment herbicidal activity, black nightshade (black nightshade [7]) | Soil treatment herbicidal activity, black nightshade (black nightshade [8]; 75 g ai/ha) | pest or weed control at 75 g/ha (cocklebur [9]) [%] | pest or weed control at 75 g/ha (fall panicum [10]) [%] | pest or weed control at 75 g/ha (barnyard grass [11]) [%] | plant injury at 75 g/ha (sorghum [12]) [%] | Soil treatment herbicidal activity, Fall panicum (fall panicum [14]) | Foliar treatment herbicidal activity, quack grass (quack grass [15]; 75 g ai/ha) | plant injury at 75 g/ha (sorghum [16]) [%] | pest or weed control at 75 g/ha (indian jointvetch [17]) [%] | pest or weed control at 75 g/ha (bindweed [18]) [%] | Soil treatment herbicidal activity, Indian jointvetch (indian jointvetch [19]) | further results
CCN(Cc1nnn(C)n1)c1nc(C(F)(F)F)ccc1C(=O)Nc1nnnn1C [Compound No. 2-27, 2-(ethyl((2-methyl-2H-tetrazol-5-yl)methyl)amino)-N-(1-methyl-1H-tetrazol-5-yl)-6-(trifluoromethyl)nicotinamide] | 98 | 100 | 20 | 100 | 0 | 100 | 100 | 98 | 70 | 80 | 50 | 100 | 0 | 40 | 70 | 40 | 100 | Soil treatment herbicidal activity, Cocklebur (cocklebur [4]; 75 g ai/ha): 100; Foliar treatment herbicidal activity, velvet leaf (velvetleaf [13]; 75 g ai/ha, scale 0-100): 100
C#CCN(Cc1nnn(C)n1)c1nc(C(F)(F)F)ccc1C(=O)Nc1nnnn1C [Compound No. 2-28, N-(1-methyl-1H-tetrazol-5-yl)-2-(((2-methyl-2H-tetrazol-5-yl)methyl)(prop-2-yn-1-yl)amino)-6-(trifluoromethyl)nicotinamide] | – | – | – | – | – | – | – | – | – | – | – | – | – | – | – | – | – | Soil treatment herbicidal activity, Bindweed (bindweed [1]; 50 g ai/ha): 0; Soil treatment herbicidal activity, velvet leaf (velvetleaf [2]; 50 g ai/ha): 100; pest or weed control at 50 g/ha (crabgrass [3]; 50 g ai/ha): 30%; Soil treatment herbicidal activity, Cocklebur (cocklebur [4]; 50 g ai/ha): 0; pest or weed control at 50 g/ha (barnyard grass [5]; Echinochloa crus-galli, 50 g ai/ha): 70%; Soil treatment herbicidal activity, quack grass (quack grass [6]; 50 g ai/ha): 0; pest or weed control at 50 g/ha (crabgrass [20]): 90%; pest or weed control at 50 g/ha (black nightshade [7]; Solanum nigrum, 50 g ai/ha): 90%; Soil treatment herbicidal activity, black nightshade (black nightshade [8]; 50 g ai/ha): 100; pest or weed control at 50 g/ha (cocklebur [9]; 50 g ai/ha): 80%; Foliar treatment herbicidal activity, Fall panicum (fall panicum [10]; 50 g ai/ha): 0; pest or weed control at 50 g/ha (barnyard grass [11]; 50 g ai/ha): 70%; Soil treatment herbicidal activity, Sorghum (sorghum [12]; 50 g ai/ha): 0; pest or weed control at 50 g/ha (velvetleaf [13]; Abutilon theophrasti, 50 g ai/ha, scale 0-100, read-out: Foliar treatment herbicidal activity, velvet leaf): 40%; pest or weed control at 50 g/ha (fall panicum [14]; Panicum dichotomiflorum, 50 g ai/ha): 70%; Foliar treatment herbicidal activity, quack grass (quack grass [15]; 50 g ai/ha): 0; Foliar treatment herbicidal activity, Sorghum (sorghum [16]; 50 g ai/ha): 0; pest or weed control at 50 g/ha (indian jointvetch [17]; 50 g ai/ha): 40%; pest or weed control at 50 g/ha (bindweed [18]; 50 g ai/ha): 40%; pest or weed control at 50 g/ha (indian jointvetch [19]; 50 g ai/ha): 70%
CN(Cc1ncn(C)n1)c1nc(C(F)(F)F)ccc1C(=O)Nc1nnnn1C [Compound No. 2-35, 2-(methyl((1-methyl-1H-1,2,4-triazol-3-yl)methyl)amino)-N-(1-methyl-1H-tetrazol-5-yl)-6-(trifluoromethyl)nicotinamide] | 70 | 100 | 70 | 100 | 0 | 100 | 100 | 90 | 80 | 80 | 90 | 100 | 0 | 70 | 80 | 70 | 100 | pest or weed control at 75 g/ha (cocklebur [4]; Xanthium strumarium, 75 g ai/ha): 95%; pest or weed control at 75 g/ha (velvetleaf [13]; Abutilon theophrasti, 75 g ai/ha, scale 0-100, read-out: Foliar treatment herbicidal activity, velvet leaf): 90%
